Test results taken from patent US7396534B2, “Cosmetic compositions containing Nigrospora sphaerica extracts” (Unilever Home & Personal Care USA, division of Conopco, Inc., priority 2004, dated 2008).

How the values were obtained:
[1] = test system: MelanoDerm tissue equivalent model (MEL-300) containing melanocytes obtained from dark skin individuals; assay: MelanoDerm tissue equivalent model, melanin content; assay type: cell-based, human; conditions: 14 micro-g/ml (100 uM); 14-day period, relative to untreated or vehicle control
Protocol: MelanoDerm Tissue Model Method
A MelanoDerm tissue equivalent model (MEL-300 from Mat Tek, Ashland, Mass.) containing melanocytes obtained from dark skin individuals was utilized to confirm the results obtained in the pig organ culture. MelanoDerms were cultured as per the supplier instructions.
[…] Positive control was included, i.e., kojic acid, which is a known skin lightening agent. During each medium change, a portion of the waste was analyzed for levels of lactate dehydrogenase as an indicator of cellular toxicity and stress. At no time was the level of lactate dehydrogenase above the vehicle control solvents (water or ethanol).
Determination of melanin content within each MelanoDerm was performed using the assay provided by the manufacturer. Each MelanoDerm was homogenized in 450-microliters of buffer (1% SDS, 0.05-mM EDTA, 10-mM Tris-HCl, pH 6.8) containing 20-microliters of Proteinase K (5 mg/ml) and incubated overnight at 45° C. […] The optical density of the top phase was determined (405-nm) following extraction of the sample with 100-microliters of chloroform:methanol (2:1) and centrifugation (10,000 g) for ten minutes. Optical density readings relative to the untreated or vehicle control (water or ethanol) were then calculated.

[2] = test system: skin from 8-month old pigmented pigs; assay: Pig skin organ culture, 14C-thiouracil incorporation (new melanin synthesis); assay type: cell-based; conditions: 1.4 mg/ml (10 mM), pig skin biopsies, three day incubation
Protocol: Organ Culture Method Waste skin from 8-month old pigmented pigs was shaved to remove hairs and washed thoroughly to remove debris and reduce microbial content. The cleaned skin was then dermatomed to approximately 1-mm thickness×75-cm^2 and placed in tissue culture flasks containing Dulbecco's Modified Eagle's Medium (DMEM Cat#1188507) containing penicillin (100-units/ml), streptomycin (100-ug/ml), kanamycin (200-ug/ml), […]-mM), and fungizone (0.5-ug/ml). All flasks were incubated overnight at 37° C. in the presence of 5% carbon dioxide. This allowed the skin to equilibrate for 18 hours prior to the addition of melanin inhibitors. Areas of the skin that had scratches, erythema, or uneven pigmentation were discarded. The following morning, the skin was punched into 4-mm diameter biopsies and transferred to a 96-well tissue culture plate. To each well containing a biopsy, 180-microliters of fresh DMEM containing penicillin (100-units/ml), streptomycin (100-ug/ml), […]-mM), hydrocortisone (100-μg/ml) and 0.4-μCi/ml ^14C-thiouracil (Moravek Biochemicals) was added along with 20-microliters of natural extract. […] Samples were mixed several times to ensure even dispersion, sealed, and assessed for radiolabel incorporation using a Packard TopCount scintillation counter. […]

With `O=c1cc(CO)occ1O` [Kojic Acid] the “% Melanin Reduction” value [1] was 9.5% and the “% Radiolabel Reduction” value [2] was 56%.
